The target in test [1] is OBP13. Put plainly: fluorescence titration, Scatchard analysis. In kind it is binding, Locusta migratoria.
The target in test [2] is Clvs2. Put plainly: microscale thermophoresis. In kind it is binding, Locusta migratoria. (In general: Microscale thermophoresis detects binding through changes in fluorescence in a small temperature gradient.)
Test [3] has as its target OBP13. Put plainly: competitive fluorescence binding assay. Details: species or system Locusta migratoria.

Usually Kd stands for the free concentration of one partner at which half of the binding sites on the other are occupied at equilibrium, for simple one-to-one binding. A high value points to lower affinity. In turn, `c1ccc(Nc2cccc3ccccc23)cc1` [1-NPN, N-phenyl-1-naphthylamine] showed a Kd in test [1] of 13.8 µM.
As for “phosphatidylinositol 4,5-bisphosphate [PI(4,5)P2]”, in test [2], the Kd amounted to 5.86 ± 0.59 µM.
By Ki is commonly meant a dissociation constant, usually derived from enzyme kinetics or from competition with a known ligand. The compound `C=Cc1ccc(OC)cc1` [4VA, 4-vinylanisole] had a Ki in test [3] of 3.46 µM.
